Laboratory results reported in ChEMBL document CHEMBL6153040, “Discovery of the salicylaldehyde-based compound DDO-02267 as a lysine-targeting covalent inhibitor of ALKBH5” (Eur J Med Chem, 2025).
The source made the active and inactive calls. No cut-off for these calls is given here.

What was measured:
[1] = test system: MV4-11; assay: Downregulation of AXL mRNA expression levels in human MV4-11 cells at 10 to 80 uM incubated for 72 hrs by qRT-PCR analysis; assay type: functional, cell-based; conditions: dose 10-80 µM
[2] = target: T1, RNA demethylase ALKBH5 (Homo sapiens, UniProt Q6P6C2); assay: Binding affinity to ALKBH5 (66 to 292 residues) (unknown origin) extracted from Escherichia coli BL21 (DE3) cells assessed as dissociation constant by ITC analysis
Target sequence in this assay (Q6P6C2 whole entry, the tested form may be a part): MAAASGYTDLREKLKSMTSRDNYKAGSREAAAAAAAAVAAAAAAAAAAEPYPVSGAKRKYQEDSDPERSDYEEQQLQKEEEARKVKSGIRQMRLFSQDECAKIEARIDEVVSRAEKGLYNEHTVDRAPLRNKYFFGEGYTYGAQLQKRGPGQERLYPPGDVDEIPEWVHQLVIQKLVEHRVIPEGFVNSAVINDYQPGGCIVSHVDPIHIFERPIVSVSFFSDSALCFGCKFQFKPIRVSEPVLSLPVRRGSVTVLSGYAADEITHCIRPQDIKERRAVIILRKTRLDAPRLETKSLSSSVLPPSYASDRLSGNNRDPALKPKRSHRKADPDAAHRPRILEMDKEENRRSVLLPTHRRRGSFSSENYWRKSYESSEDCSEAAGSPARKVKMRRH

[3] = target: T1, RNA demethylase ALKBH5; assay: Binding affinity to ALKBH5 (66 to 292 residues) (unknown origin) extracted from Escherichia coli BL21 (DE3) cells assessed as dissociation constant incubated for 4 hrs by MST analysis
Target sequence in this assay (Q6P6C2 whole entry, the tested form may be a part): as above

[4] = target: T1, RNA demethylase ALKBH5; assay: Inhibition of ALKBH5 in human MV4-11 cells assessed as increase in m6A methylation levels by m6A RNA Methylation Quantification Kit based colorimetric analysis; assay type: cell-based; conditions: dose 10-80 µM
Target sequence in this assay (Q6P6C2 2-394 limits assumed): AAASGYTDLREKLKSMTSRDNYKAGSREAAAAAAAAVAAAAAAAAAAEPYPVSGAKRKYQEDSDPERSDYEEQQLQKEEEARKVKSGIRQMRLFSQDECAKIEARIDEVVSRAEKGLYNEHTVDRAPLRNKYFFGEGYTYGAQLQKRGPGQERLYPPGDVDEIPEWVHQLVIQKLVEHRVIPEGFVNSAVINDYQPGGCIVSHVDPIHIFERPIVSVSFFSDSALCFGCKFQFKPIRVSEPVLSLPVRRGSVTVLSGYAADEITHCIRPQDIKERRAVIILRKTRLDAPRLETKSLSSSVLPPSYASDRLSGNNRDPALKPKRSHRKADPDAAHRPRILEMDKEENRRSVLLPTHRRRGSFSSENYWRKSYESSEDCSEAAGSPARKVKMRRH

[5] = target: T2, Alpha-ketoglutarate-dependent dioxygenase alkB homolog 3 (Homo sapiens, UniProt Q96Q83); assay: Inhibition of ALKBH3 (unknown origin) by fluorescence polarization assay
T2 sequence (Q96Q83 whole entry): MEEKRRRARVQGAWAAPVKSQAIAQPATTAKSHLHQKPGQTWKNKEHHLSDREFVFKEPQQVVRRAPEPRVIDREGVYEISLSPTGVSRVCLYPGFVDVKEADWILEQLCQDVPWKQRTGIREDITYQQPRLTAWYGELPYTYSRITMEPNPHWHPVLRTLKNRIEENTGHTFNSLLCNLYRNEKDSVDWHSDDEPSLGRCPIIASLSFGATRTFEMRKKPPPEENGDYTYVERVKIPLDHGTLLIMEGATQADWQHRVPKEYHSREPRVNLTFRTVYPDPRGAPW

[6] = target: T1, RNA demethylase ALKBH5; assay: Time-dependent inhibition of ALKBH5 (66 to 292 residues) (unknown origin) demethylation activity extracted from Escherichia coli BL21 (DE3) cells using m6A ssDNA as substrate at 1 to 10 uM by TBE-PAGE based restriction enzyme digestion assay; conditions: dose 1-10 µM, time 0.5-2 hrs
Target sequence in this assay (Q6P6C2 2-394 limits assumed): as the sequence (Q6P6C2 2-394 limits assumed) above

[7] = target: T1, RNA demethylase ALKBH5; assay: Inhibition of ALKBH5 (66 to 292 residues) (unknown origin) extracted from Escherichia coli BL21 (DE3) cells using m6A ssDNA as substrate incubated for 2 hrs by TBE-PAGE based restriction enzyme digestion assay
Target sequence in this assay (Q6P6C2 whole entry, the tested form may be a part): as the sequence (Q6P6C2 whole entry, the tested form may be a part) above

[8] = target: T1, RNA demethylase ALKBH5; assay: Inhibition of ALKBH5 (66 to 292 residues) (unknown origin) extracted from Escherichia coli BL21 (DE3) cells using m6A ssDNA as substrate measured after 2 hrs by fluorescence polarization assay
Target sequence in this assay (Q6P6C2 whole entry, the tested form may be a part): as above

[9] = test system: MOLM-13; assay: Induction of apoptosis in human MOLM-13 cells assessed as necrotic cells at 80 uM incubated for 72 hrs by Annexin V FITC/PI staining based flow cytometry analysis (reference value: 1.75 %); assay type: functional
[10] = target: T1, RNA demethylase ALKBH5; assay: Inhibition of ALKBH5 (66 to 292 residues) (unknown origin) extracted from Escherichia coli BL21 (DE3) cells using m6A ssDNA as substrate assessed as inactivation constant (Ki) measured after 6 hrs by fluorescence polarization assay
Target sequence in this assay (Q6P6C2 whole entry, the tested form may be a part): as above

[11] = target: T1, RNA demethylase ALKBH5; assay: Inhibition of ALKBH5 (66 to 292 residues) (unknown origin) extracted from Escherichia coli BL21 (DE3) cells using m6A ssDNA as substrate measured after 20 mins by fluorescence polarization assay
Target sequence in this assay (Q6P6C2 whole entry, the tested form may be a part): as above

[12] = target: T1, RNA demethylase ALKBH5; assay: Inhibition of ALKBH5 (66 to 292 residues) (unknown origin) extracted from Escherichia coli BL21 (DE3) cells using m6A ssDNA as substrate measured immediately by fluorescence polarization assay
[13] = test system: MOLM-13; assay: Induction of apoptosis in human MOLM-13 cells assessed as early apoptotic cells at 80 uM incubated for 72 hrs by Annexin V FITC/PI staining based flow cytometry analysis (reference value: 4.32%); assay type: functional
[14] = Selectivity ratio of IC50 for FTO (32 to 505 residues) (unknown origin) extracted from Escherichia coli BL21 (DE3) cells to IC50 for ALKBH5 (66 to 292 residues) (unknown origin) extracted from Escherichia coli BL21 (DE3) cells by restriction enzyme digestion assay
[15] = test system: MOLM-13; assay: Induction of cell cycle arrest in human MOLM-13 cells assessed as accumulation of cells at G2/M phase at 40 uM incubated for 72 hrs by flow cytometry analysis (reference value: 17.53 %); assay type: functional
[16] = Selectivity ratio of IC50 for FTO (32 to 505 residues) (unknown origin) extracted from Escherichia coli BL21 (DE3) cells to IC50 for ALKBH5 (66 to 292 residues) (unknown origin) extracted from Escherichia coli BL21 (DE3) cells by fluorescence polarization assay
[17] = target: T1, RNA demethylase ALKBH5; assay: Binding affinity to ALKBH5 (66 to 292 residues) (unknown origin) extracted from Escherichia coli BL21 (DE3) cells assessed as dissociation constant incubated for 3 hrs by MST analysis
[18] = target: T1, RNA demethylase ALKBH5; assay: Inhibition of ALKBH5 (66 to 292 residues) (unknown origin) extracted from Escherichia coli BL21 (DE3) cells using m6A ssDNA as substrate assessed as maximum inactivation rate constant (Kinact) measured after 6 hrs by fluorescence polarization assay
Target sequence in this assay (Q6P6C2 2-394 limits assumed): as the sequence (Q6P6C2 2-394 limits assumed) above

[19] = target: T1, RNA demethylase ALKBH5; assay: Inhibition of ALKBH5 (66 to 292 residues) (unknown origin) extracted from Escherichia coli BL21 (DE3) cells using m6A ssDNA as substrate measured after 40 mins by fluorescence polarization assay
[20] = test system: RNA demethylase ALKBH5 (Homo sapiens), Q6P6C2 [K132E]; assay: Induction of thermal stabilization of ALKBH5 K132E mutant (66 to 292 residues) (unknown origin) extracted from Escherichia coli BL21 (DE3) cells assessed as change in melting temperature by thermal shift assay
[21] = test system: MOLM-13; assay: Induction of apoptosis in human MOLM-13 cells assessed as late apoptotic cells at 80 uM incubated for 72 hrs by Annexin V FITC/PI staining based flow cytometry analysis (reference value: 4.28 %); assay type: functional
[22] = test system: RNA demethylase ALKBH5 (Homo sapiens), Q6P6C2 [K132E]; assay: Induction of thermal stabilization of ALKBH5 K132E mutant (66 to 292 residues) (unknown origin) extracted from Escherichia coli BL21 (DE3) cells assessed as melting temperature by thermal shift assay (reference value: 47.05 degreeC)
[23] = target: T1, RNA demethylase ALKBH5; assay: Inhibition of ALKBH5 (66 to 292 residues) (unknown origin) extracted from Escherichia coli BL21 (DE3) cells using m6A ssDNA as substrate at 1.25 to 10 uM incubated for 2 hrs in presence of 2-OG by TBE-PAGE based restriction enzyme digestion assay; conditions: dose 1.25-10 µM
Target sequence in this assay (Q6P6C2 2-394 limits assumed): as above

[24] = target: Alpha-ketoglutarate-dependent dioxygenase FTO (Homo sapiens, UniProt Q9C0B1); assay: Induction of thermal stabilization of FTO (32 to 505 residues) (unknown origin) extracted from Escherichia coli BL21 (DE3) cells assessed as change in melting temperature by thermal shift assay
[25] = test system: RNA demethylase ALKBH5 (Homo sapiens), Q6P6C2 [K132E]; assay: Inhibition of ALKBH5 K132E mutant (66 to 292 residues) (unknown origin) extracted from Escherichia coli BL21 (DE3) cells using m6A ssDNA as substrate at 0.5 to 100 uM incubated for 2 hrs by restriction enzyme digestion assay; conditions: dose 0.5-100 µM
[26] = test system: MOLM-13; assay: Induction of cell cycle arrest in human MOLM-13 cells assessed as accumulation of cells at G0/G1 phase at 80 uM incubated for 72 hrs by flow cytometry analysis (reference value: 65.53 %); assay type: functional

RNA demethylase ALKBH5 (Homo sapiens), Q6P6C2 [K132E], sequence (Q6P6C2 whole entry K132E, the tested form may be a part): as the sequence (Q6P6C2 whole entry, the tested form may be a part) above, with K132E counted along it
Alpha-ketoglutarate-dependent dioxygenase FTO, sequence (Q9C0B1 whole entry, looked up, the tested form may be a part): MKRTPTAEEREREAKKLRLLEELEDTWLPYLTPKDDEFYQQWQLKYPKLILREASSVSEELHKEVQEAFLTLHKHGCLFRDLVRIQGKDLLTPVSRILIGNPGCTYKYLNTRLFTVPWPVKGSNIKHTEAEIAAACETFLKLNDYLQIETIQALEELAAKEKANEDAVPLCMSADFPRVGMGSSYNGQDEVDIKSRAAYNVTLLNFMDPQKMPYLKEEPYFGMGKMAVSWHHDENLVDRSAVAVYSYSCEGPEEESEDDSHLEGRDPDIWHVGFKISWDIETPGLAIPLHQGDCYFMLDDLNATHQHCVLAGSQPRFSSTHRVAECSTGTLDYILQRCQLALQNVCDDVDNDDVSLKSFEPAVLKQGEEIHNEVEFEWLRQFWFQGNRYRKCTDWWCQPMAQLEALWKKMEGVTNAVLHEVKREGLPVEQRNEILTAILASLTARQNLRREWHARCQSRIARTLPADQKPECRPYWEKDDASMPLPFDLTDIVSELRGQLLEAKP

## O=Cc1cc(S(=O)(=O)NC(=O)c2cc(C(=O)O)ccn2)c2ccccc2c1O
[1]
  Activity: Active
[2]
  Kd: 2800 nM
[3]
  Kd: 650 nM
[4]
  inhibition: Dose-dependent-effect
[5]
  IC50: 11700 nM
[6]
  TDI: Active
[7]
  IC50: 2530 nM
[8]
  IC50: 350 nM
[9]
  Activity: 1.2%
[10]
  Ki: 410 nM
[11]
  IC50: 780 nM
[12]
  IC50: 1430 nM
[13]
  Activity: 9.16%
[14]
  Ratio IC50: 10
[15]
  Activity: 26.1%
[16]
  Ratio IC50: 20
[17]
  Kd: 1030 nM
[18]
  Kinact: 14.2 min⁻¹
[19]
  IC50: 580 nM
[20]
  ΔTm: < 1 °C
[21]
  Activity: 12%
[22]
  Tm: 46.1 °C
[23]
  inhibition: Active
[24]
  ΔTm: < 1 °C
[25]
  inhibition: inactive
[26]
  Activity: 73.67%
